How the values were obtained:
Assay type in all cases: in vivo
[1] = test system: ragweed (common ragweed, Ambrosia elatior); assay: Test A preemergence, visual injury rating
How it was run: (§1)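 Scoring: eye-based comparison with untreated controls, 0 for no effect through 100 for complete control, at about day 10. Treatments: directed soil spray preemergence; foliar spray postemergence on 2–10 cm plants at the one- to two-leaf stage. Medium: loam soil with sand.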

[2] = test system: Italian ryegrass (Lolium multiflorum); assay: Test A preemergence, visual injury rating
How it was run: as §1

[3] = test system: giant foxtail (Setaria faberii); assay: Test A preemergence, visual injury rating
How it was run: as §1

kochia (Kochia scoparia) [4] = assay: Test A preemergence, visual injury rating
How it was run: as §1

[5] = test system: barnyardgrass (Echinochloa crus-galli); assay: Test A preemergence, visual injury rating
How it was run: as §1

[6] = test system: pigweed (Amaranthus retroflexus); assay: Test A preemergence, visual injury rating
How it was run: as §1

[7] = test system: ragweed (common ragweed, Ambrosia elatior); assay: Test A postemergence, visual injury rating; conditions: 0 to 100 scale, 0 is no effect, 100 is complete control, approximately 10 days
How it was run: as §1

[8] = test system: Italian ryegrass (Lolium multiflorum); assay: Test A postemergence, visual injury rating; conditions: 0 to 100 scale, 0 is no effect, 100 is complete control, approximately 10 days
How it was run: as §1

[9] = test system: wheat (Triticum aestivum); assay: Test A postemergence, visual injury rating; conditions: 0 to 100 scale, 0 is no effect, 100 is complete control, approximately 10 days
How it was run: as §1

[10] = test system: giant foxtail (Setaria faberii); assay: Test A postemergence, visual injury rating; conditions: 0 to 100 scale, 0 is no effect, 100 is complete control, approximately 10 days
How it was run: as §1

kochia (Kochia scoparia) [11] = assay: Test A postemergence, visual injury rating; conditions: 0 to 100 scale, 0 is no effect, 100 is complete control, approximately 10 days
How it was run: as §1

corn (Zea mays) = assay: Test A postemergence, visual injury rating; conditions: 0 to 100 scale, 0 is no effect, 100 is complete control, approximately 10 days
How it was run: as §1

[12] = test system: blackgrass (Alopecurus myosuroides); assay: Test A postemergence, visual injury rating; conditions: 0 to 100 scale, 0 is no effect, 100 is complete control, approximately 10 days
How it was run: as §1

[13] = test system: galium (catchweed bedstraw, Galium aparine); assay: Test A postemergence, visual injury rating; conditions: 0 to 100 scale, 0 is no effect, 100 is complete control, approximately 10 days
How it was run: as §1

[14] = test system: barnyardgrass (Echinochloa crus-galli); assay: Test A postemergence, visual injury rating; conditions: 0 to 100 scale, 0 is no effect, 100 is complete control, approximately 10 days
How it was run: as §1

[15] = test system: pigweed (Amaranthus retroflexus); assay: Test A postemergence, visual injury rating; conditions: 0 to 100 scale, 0 is no effect, 100 is complete control, approximately 10 days
How it was run: as §1

[16] = test system: ducksalad (Heteranthera limosa); assay: Test B flooded paddy test, plant response rating; conditions: 250 g ai/ha; Flood; scale of 0 to 100 where 0 is no effect and 100 is complete control; 13 to 15 days
How it was run: (§2)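 Test compounds are applied straight into paddy water held 3 cm above the soil surface, with that flood maintained for the whole test. After 13 to 15 days in the greenhouse, each species is scored visually relative to controls.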

[17] = test system: sedge, umbrella (small-flower umbrella sedge, Cyperus difformis); assay: Test B flooded paddy test, plant response rating; conditions: 250 g ai/ha; Flood; scale of 0 to 100 where 0 is no effect and 100 is complete control; 13 to 15 days
How it was run: as §2

[18] = test system: barnyardgrass (Echinochloa crus-galli); assay: Test B flooded paddy test, plant response rating; conditions: 250 g ai/ha; Flood; scale of 0 to 100 where 0 is no effect and 100 is complete control; 13 to 15 days
How it was run: as §2

rice (Oryza sativa) = assay: Test B flooded paddy test, plant response rating; conditions: 250 g ai/ha; Flood; scale of 0 to 100 where 0 is no effect and 100 is complete control; 13 to 15 days
How it was run: as §2

[19] = 31 g ai/ha, 0 to 100 scale, 0 no effect, 100 complete control
[20] = 125 g ai/ha, 0 to 100 scale (0 no effect, 100 complete control)

| Structure (SMILES) | Plant response rating, Ragweed [1, 19] | Plant response rating, Ragweed [1, 20] | Plant response rating, Ryegrass, Italian [2, 19] | Plant response rating, Ryegrass, Italian [2, 20] | Plant response rating, Foxtail, Giant [3, 19] | Plant response rating, Foxtail, Giant [3, 20] | Plant response rating, Kochia (kochia (Kochia scoparia) [4]; [19]) | Plant response rating, Kochia (kochia (Kochia scoparia) [4]; [20]) | Plant response rating, Barnyardgrass [5, 19] | Plant response rating, Barnyardgrass [5, 20] | Plant response rating, Pigweed [6, 19] | Plant response rating, Pigweed [6, 20] | Ragweed plant response rating ([7]; 31 g ai/ha) | Ragweed plant response rating ([7]; 125 g ai/ha) | Ryegrass, Italian plant response rating ([8]; 31 g ai/ha) | Ryegrass, Italian plant response rating ([8]; 125 g ai/ha) | Wheat plant response rating ([9]; 31 g ai/ha) | Wheat plant response rating ([9]; 125 g ai/ha) | Foxtail, Giant plant response rating ([10]; 31 g ai/ha) | Foxtail, Giant plant response rating ([10]; 125 g ai/ha) | further results |
| --- | --- | --- | --- | --- | --- | --- | --- | --- | --- | --- | --- | --- | --- | --- | --- | --- | --- | --- | --- | --- | --- |
| O=C(OCCC(F)(F)F)c1c(Oc2ncc(Cl)cn2)cccc1C(F)(F)F [Compound 113] | 0 | 0 | 10 | 40 | 60 | 100 | 10 | 60 | 0 | 90 | 100 | 100 | 0 | 20 | 0 | 30 | 0 | 20 | 10 | 50 | Kochia plant response rating (kochia (Kochia scoparia) [11]; 31 g ai/ha): 80; Kochia plant response rating (kochia (Kochia scoparia) [11]; 125 g ai/ha): 100; Corn plant response rating (corn (Zea mays); 31 g ai/ha): 10; Corn plant response rating (corn (Zea mays); 125 g ai/ha): 20; Blackgrass plant response rating ([12]; 31 g ai/ha): 0; Blackgrass plant response rating ([12]; 125 g ai/ha): 40; Galium plant response rating ([13]; 31 g ai/ha): 40; Galium plant response rating ([13]; 125 g ai/ha): 80; Barnyardgrass plant response rating ([14]; 31 g ai/ha): 10; Barnyardgrass plant response rating ([14]; 125 g ai/ha): 40; Pigweed plant response rating ([15]; 31 g ai/ha): 90; Pigweed plant response rating ([15]; 125 g ai/ha): 100; Plant response rating, Ducksalad [16]: 80; Plant response rating, Sedge, Umbrella [17]: 90; Plant response rating, Barnyardgrass [18]: 65; Plant response rating, Rice (rice (Oryza sativa)): 20 |
| CCCCC(C#N)c1c(Br)cccc1Oc1ncc(Cl)cn1 (stereo not drawn) [Compound 114] | 20 | 80 | 0 | 0 | 10 | 90 | 0 | 10 | 0 | 20 | 0 | 30 | 0 | 20 | 0 | 10 | 0 | 10 | 0 | 20 | Kochia plant response rating (kochia (Kochia scoparia) [11]; 31 g ai/ha): 20; Kochia plant response rating (kochia (Kochia scoparia) [11]; 125 g ai/ha): 80; Corn plant response rating (corn (Zea mays); 31 g ai/ha): 10; Corn plant response rating (corn (Zea mays); 125 g ai/ha): 20; Blackgrass plant response rating ([12]; 31 g ai/ha): 0; Blackgrass plant response rating ([12]; 125 g ai/ha): 10; Galium plant response rating ([13]; 31 g ai/ha): 50; Galium plant response rating ([13]; 125 g ai/ha): 80; Barnyardgrass plant response rating ([14]; 31 g ai/ha): 0; Barnyardgrass plant response rating ([14]; 125 g ai/ha): 10; Pigweed plant response rating ([15]; 31 g ai/ha): 50; Pigweed plant response rating ([15]; 125 g ai/ha): 100; Plant response rating, Ducksalad [16]: 40; Plant response rating, Sedge, Umbrella [17]: 90; Plant response rating, Barnyardgrass [18]: 0; Plant response rating, Rice (rice (Oryza sativa)): 0 |
| CC(C)Oc1cccc(Oc2ncc(Cl)cn2)c1C(=O)OCCC(F)(F)F [Compound 115] | 20 | 0 | 0 | 0 | 0 | 0 | 70 | 0 | 0 | 0 | 0 | 0 | 0 | 0 | 0 | 0 | 0 | 0 | 0 | 0 | Kochia plant response rating (kochia (Kochia scoparia) [11]; 31 g ai/ha): 0; Kochia plant response rating (kochia (Kochia scoparia) [11]; 125 g ai/ha): 0; Corn plant response rating (corn (Zea mays); 31 g ai/ha): 0; Corn plant response rating (corn (Zea mays); 125 g ai/ha): 10; Blackgrass plant response rating ([12]; 31 g ai/ha): 0; Blackgrass plant response rating ([12]; 125 g ai/ha): 20; Galium plant response rating ([13]; 31 g ai/ha): 20; Galium plant response rating ([13]; 125 g ai/ha): 20; Barnyardgrass plant response rating ([14]; 31 g ai/ha): 0; Barnyardgrass plant response rating ([14]; 125 g ai/ha): 0; Pigweed plant response rating ([15]; 31 g ai/ha): 10; Pigweed plant response rating ([15]; 125 g ai/ha): 40; Plant response rating, Ducksalad [16]: 0; Plant response rating, Sedge, Umbrella [17]: 0; Plant response rating, Barnyardgrass [18]: 0; Plant response rating, Rice (rice (Oryza sativa)): 0 |
| CCOc1cccc(Oc2ncc(Cl)cn2)c1C(=O)OCCC(F)(F)F [Compound 116] | 30 | 0 | 0 | 0 | 0 | 30 | 0 | 0 | 0 | 0 | 50 | 70 | 0 | 0 | 0 | 0 | 0 | 0 | 0 | 20 | Kochia plant response rating (kochia (Kochia scoparia) [11]; 31 g ai/ha): 0; Kochia plant response rating (kochia (Kochia scoparia) [11]; 125 g ai/ha): 10; Corn plant response rating (corn (Zea mays); 31 g ai/ha): 0; Corn plant response rating (corn (Zea mays); 125 g ai/ha): 10; Blackgrass plant response rating ([12]; 31 g ai/ha): 0; Blackgrass plant response rating ([12]; 125 g ai/ha): 0; Galium plant response rating ([13]; 31 g ai/ha): 30; Galium plant response rating ([13]; 125 g ai/ha): 60; Barnyardgrass plant response rating ([14]; 31 g ai/ha): 0; Barnyardgrass plant response rating ([14]; 125 g ai/ha): 10; Pigweed plant response rating ([15]; 31 g ai/ha): 40; Pigweed plant response rating ([15]; 125 g ai/ha): 50; Plant response rating, Ducksalad [16]: 75; Plant response rating, Sedge, Umbrella [17]: 90; Plant response rating, Barnyardgrass [18]: 30; Plant response rating, Rice (rice (Oryza sativa)): 70 |
| O=C(OCCC(F)(F)F)c1c(OCC(F)(F)F)cccc1Oc1ncc(Cl)cn1 [Compound 117] | 0 | 0 | 0 | 0 | 0 | 20 | 0 | 0 | 0 | 0 | 0 | 30 | 0 | 20 | 0 | 0 | 0 | 0 | 0 | 10 | Kochia plant response rating (kochia (Kochia scoparia) [11]; 31 g ai/ha): 20; Kochia plant response rating (kochia (Kochia scoparia) [11]; 125 g ai/ha): 50; Corn plant response rating (corn (Zea mays); 31 g ai/ha): 10; Corn plant response rating (corn (Zea mays); 125 g ai/ha): 10; Blackgrass plant response rating ([12]; 31 g ai/ha): 0; Blackgrass plant response rating ([12]; 125 g ai/ha): 10; Galium plant response rating ([13]; 31 g ai/ha): 60; Galium plant response rating ([13]; 125 g ai/ha): 100; Barnyardgrass plant response rating ([14]; 31 g ai/ha): 0; Barnyardgrass plant response rating ([14]; 125 g ai/ha): 10; Pigweed plant response rating ([15]; 31 g ai/ha): 30; Pigweed plant response rating ([15]; 125 g ai/ha): 70; Plant response rating, Ducksalad [16]: 20; Plant response rating, Sedge, Umbrella [17]: 60; Plant response rating, Barnyardgrass [18]: 0; Plant response rating, Rice (rice (Oryza sativa)): 0 |

Reference: patent US11053204B2, “Pyrimidinyloxy benzene derivatives as herbicides” (FMC Corporation, priority 2015, dated 2021)
